Drawing on paper PMC8286840, “Identifying SARS-CoV-2 antiviral compounds by screening for small molecule inhibitors of Nsp3 papain-like protease” (Biochemical Journal, 2021), this text covers remaining activity for 31 compounds.

The target of test [1] is T1, SARS-CoV-2 PLpro (nsp3 1564–1878) (Severe acute respiratory syndrome coronavirus 2, UniProt P0DTD1). In words: biochemical. Also on record: FRET-quenched peptide (Pro3) cleavage by PLpro, 10 min pre-incubation, slope over 20 min, normalised to no-compound control. Particulars: low concentration screen, read-out: % of control remaining.
For test [2], the target named is T1, SARS-CoV-2 PLpro (nsp3 1564–1878). In words: biochemical. Details: FRET-quenched peptide (Pro3) cleavage by PLpro, 10 min pre-incubation, slope over 20 min, normalised to no-compound control. The note with it: high concentration screen, read-out: % of control remaining.

Structures can show the parent of a compound that is named as a salt. Where two headings read alike, the source gives them in different places.

With `CCCCCCCCCCCCCCCCOCC(COP(=O)([O-])OCC[N+](C)(C)C)OC` (centres unmarked) [1-Hexadecyl-2-methylglycero-3 PC], in test [1] (Well no.=4259), the remaining activity at 1.25 µM was 95.4%. In addition, the remaining activity at 3.75 µM in test [2] (Well no.=4259) came to 92%.

Take `C[C@H](O)[C@H](O)[C@H]1CNc2nc(N)[nH]c(=O)c2N1` [Tetrahydrobiopterin]: in test [1] (Well no.=6159), the remaining activity at 1.25 µM was 108%. The remaining activity at 3.75 µM in test [2] (Well no.=6159) turned out to be 109%.

In the case of `CC(C)(N)C(=O)O` [NSC 16590], the remaining activity at 1.25 µM in test [1] (Well no.=7781) turned out to be 103%. The remaining activity at 3.75 µM in test [2] (Well no.=7781) came to 108%.

Consider `C[C@]1(C(=O)O)[C@@H]2CC[C@@H](O2)[C@@]1(C)C(=O)O` [Cantharidic Acid], for which the remaining activity at 1.25 µM in test [1] (Well no.=378) is 87.8%. Besides, in test [2] (Well no.=378), the remaining activity at 3.75 µM came to 88.7%.

On to `O=C1/C(=C/c2ccc([N+](=O)[O-])cc2)CS(=O)(=O)C/C1=C\c1ccc([N+](=O)[O-])cc1` [Ubiquitin Isopeptidase Inhibitor I, G5], for which the remaining activity at 1.25 µM in test [1] (Well no.=6388) was found to be 93.2%. Moreover, the remaining activity at 3.75 µM in test [2] (Well no.=6388) worked out at 95.7%.

Regarding `C[C@H]1[C@H](NC(=O)/C(=N\OC(C)(C)C(=O)O)c2csc(N)n2)C(=O)N1S(=O)(=O)O` [Aztreonam], the remaining activity at 1.25 µM in test [1] (Well no.=2169) turned out to be 103%. Moreover, the remaining activity at 3.75 µM in test [2] (Well no.=2169) amounted to 102%.

Take `CCNC(=O)CC[C@H](N)C(=O)O` [L-Theanine]: the remaining activity at 1.25 µM in test [1] (Well no.=3522) was found to be 97.3%. The remaining activity at 3.75 µM in test [2] (Well no.=3522) is 99%.

Consider `C[C@@H]1CC[C@H]2[C@](C)(CO)[C@@H](O)CC[C@]2(C)[C@@]12CC[C@@](CO)(CCO)O2` [Lagochiline], for which the remaining activity at 1.25 µM in test [1] (Well no.=3651) was found to be 100%. Also, the remaining activity at 3.75 µM in test [2] (Well no.=3651) came to 101%.

On to `c1ccc2c(c1)[nH]c1cnccc12` [Norharmane], for which the remaining activity at 1.25 µM in test [1] (Well no.=3262) is 101%. For the same compound, the remaining activity at 3.75 µM in test [2] (Well no.=3262) came out at 98.5%.

For `CCN1CCCC1CNC(=O)c1cc(S(=O)(=O)CC)c(N)cc1OC` (centres unmarked) [Amisulpride], the remaining activity at 1.25 µM turned out to be 93.3% in test [1] (Well no.=2275) and 107% in test [1] (Well no.=8149). Also, the remaining activity at 3.75 µM in test [2] (Well no.=2275) is 97.7%; in test [2] (Well no.=8149), 107%.

Turning to `CCC[C@H](N[C@@H](C)C(=O)N1[C@H](C(=O)O)C[C@@H]2CCCC[C@@H]21)C(=O)OCC` [Perindopril Erbumine], the remaining activity at 1.25 µM in test [1] (Well no.=8778) was determined as 89.7%. In test [2] (Well no.=8778), the remaining activity at 3.75 µM came to 84.8%.

For `CCC1(c2ccccc2)NC(=O)N(C)C1=O` (centres unmarked) [Mephenytoin], the remaining activity at 1.25 µM in test [1] (Well no.=1774) came to 99.1%. In addition, the remaining activity at 3.75 µM in test [2] (Well no.=1774) was 99.4%.

For `NC(Cc1cccc(-c2ccccc2CP(=O)(O)O)c1)C(=O)O` (stereo not drawn) [Phenylbenzene-omega-phosphono-alpha-amino acid], the remaining activity at 1.25 µM in test [1] (Well no.=1361) was determined as 100%. For the same compound, the remaining activity at 3.75 µM in test [2] (Well no.=1361) amounted to 100%.

On to `Cc1cc2c(cc1CC(=O)c1sccc1S(=O)(=O)Nc1onc(C)c1Cl)OCO2` [Sitaxsentan (sodium)], for which the remaining activity at 1.25 µM in test [1] (Well no.=8533) was 105%. Also, the remaining activity at 3.75 µM in test [2] (Well no.=8533) was determined as 106%.

As to `OC[C@H]1O[C@@H](n2cnc3c(=S)nc[nH]c32)[C@H](O)[C@@H]1O` [6-_Thioinosine], the remaining activity at 1.25 µM in test [1] (Well no.=7724) was 99.8%. Further, the remaining activity at 3.75 µM in test [2] (Well no.=7724) is 96.5%.

As to `CCCCC/C=C\C[C@@H]1O[C@H]1/C=C/C(O)C/C=C\CCCC(=O)O` (some centres unmarked) [Hepoxilin A3], the remaining activity at 1.25 µM in test [1] (Well no.=4339) turned out to be 107%. The remaining activity at 3.75 µM in test [2] (Well no.=4339) was determined as 106%.

For the compound `CCOC(=O)c1cnc2c(cnn2CC)c1NN=C(C)C` [Etazolate], the remaining activity at 1.25 µM in test [1] (Well no.=2144) came to 93.8%. For the same compound, in test [2] (Well no.=2144), the remaining activity at 3.75 µM came to 97.1%.

Turning to `CCCCCN(CCCOC)C(=O)C(CCC(=O)O)NC(=O)c1ccc(Cl)c(Cl)c1` (centres unmarked) [Loxiglumide], in test [1] (Well no.=8483), the remaining activity at 1.25 µM was found to be 94.1%. In addition, the remaining activity at 3.75 µM in test [2] (Well no.=8483) is 95%.

Turning to `CN1CCC2=C(C1)c1ccccc1Cc1ccccc12` [Setiptiline (maleate)], the remaining activity at 1.25 µM in test [1] (Well no.=6907) was 101%. Further, in test [2] (Well no.=6907), the remaining activity at 3.75 µM was 101%.

On to `C/C(=C\C(=O)Nc1ccccc1C(=O)O)c1ccc2ccccc2c1` [BIBR 1532], for which the remaining activity at 1.25 µM in test [1] (Well no.=5095) came out at 103%. Moreover, in test [2] (Well no.=5095), the remaining activity at 3.75 µM was 106%.

Take `CCCCC(CC)COC(=O)CC(C(=O)OCC(CC)CCCC)S(=O)(=O)O` (centres unmarked) [Docusate Sodium]: the remaining activity at 1.25 µM in test [1] (Well no.=8348) amounted to 94.3%. Further, the remaining activity at 3.75 µM in test [2] (Well no.=8348) stood at 92.6%.

`Nc1ncnc2n[nH]c(Nc3ccc(F)cc3)c12` [CGP 57380 - N3-(4-Fluorophenyl)-1H-pyrazolo-[3,4-d]pyrimidine-3,4-diamine]: the remaining activity at 1.25 µM in test [1] (Well no.=2624) was found to be 92.8%. The remaining activity at 3.75 µM in test [2] (Well no.=2624) is 92.7%.

In the case of `c1cncc([C@@H]2CCCCN2)c1` (racemic), in test [1] (Well no.=3477), the remaining activity at 1.25 µM was 102%. In test [2] (Well no.=3477), the remaining activity at 3.75 µM came out at 99.3%.

For the compound `NC[C@H](O)c1ccc(O)c(O)c1` [Norepinephrine], the remaining activity at 1.25 µM in test [1] (Well no.=7015) worked out at 106%. Further, in test [2] (Well no.=7015), the remaining activity at 3.75 µM worked out at 103%.

As for `CNC(=O)c1cnn(-c2nc(N)c3ncn([C@@H]4O[C@H](CO)[C@@H](O)[C@H]4O)c3n2)c1` [Regadenoson], the remaining activity at 1.25 µM turned out to be 106% in test [1] (Well no.=6557) and 96.6% in test [1] (Well no.=8367). Also, the remaining activity at 3.75 µM in test [2] (Well no.=6557) came out at 103%; in test [2] (Well no.=8367) it was 95.1%.

Take `CC(C)NCC(O)COc1ccc(CCOCC2CC2)cc1` (centres unmarked) [Betaxolol hydrochloride]: the remaining activity at 1.25 µM in test [1] (Well no.=175) was found to be 102%. For the same compound, the remaining activity at 3.75 µM in test [2] (Well no.=175) is 101%.

With `CC(C)(C)NC[C@H](O)COc1nsnc1N1CCOCC1` [(S)-Timolol (Maleate)], in test [1] (Well no.=7667), the remaining activity at 1.25 µM turned out to be 92.8%. Moreover, the remaining activity at 3.75 µM in test [2] (Well no.=7667) was 94.8%.

Regarding `O=S(=O)(O)c1ccc(N=Nc2c(O)ccc3cc(S(=O)(=O)O)ccc23)cc1` [Sunset Yellow FCF], in test [1] (Well no.=8500), the remaining activity at 1.25 µM worked out at 95.1%. Further, the remaining activity at 3.75 µM in test [2] (Well no.=8500) stood at 92.1%.

`CCCCCCCC/C=C\CCCCCCCC(=O)OC[C@H](CO)OC(C)=O` [1-Oleoyl-2-acetyl-glycerol]: in test [1] (Well no.=4480), the remaining activity at 1.25 µM was 97.7%. Moreover, the remaining activity at 3.75 µM in test [2] (Well no.=4480) is 99.2%.

As for `C=CC(=O)Nc1cc2c(Nc3ccc(F)c(Cl)c3)ncnc2cc1OCCCN1CCOCC1` [Canertinib], the remaining activity at 1.25 µM in test [1] (Well no.=2693) worked out at 105%. In addition, the remaining activity at 3.75 µM in test [2] (Well no.=2693) is 107%.

On to `NS(=O)(=O)c1cc2c(cc1Cl)N=CNS2(=O)=O` [Chlorothiazide], for which the figures for the remaining activity at 1.25 µM in test [1] (Well no.=82) and in test [1] (Well no.=7460) were 99.4% and 96%, respectively. Moreover, the remaining activity at 3.75 µM in test [2] (Well no.=82) stood at 100%; in test [2] (Well no.=7460), 102%.
